Test results from ChEMBL document CHEMBL1201862, “PubChem BioAssay data set” (2004).
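Protocol summary: plate cells (96-well), add compound at 5 concentrations, incubate 48 h, interpolate endpoints linearly. Here, GI50 denotes the concentration required for 50% inhibition of growth.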 Calls of active or inactive are those of the source. No stated cut-off is given here; in the data, active = GI50 up to about 1.1 µM and inactive = higher.

Tests used:
Assay in all cases: DTP human tumour cell line panel, 48 h
[1] = tested on: U-251
[2] = tested on: RPMI-8226
[3] = tested on: MCF7
[4] = tested on: COLO 205
[5] = tested on: PC-3
[6] = tested on: HL-60
[7] = tested on: A549
[8] = tested on: MDA-MB-231
[9] = tested on: CAKI-1
[10] = tested on: SR
[11] = tested on: IGROV-1
[12] = tested on: RXF 393
[13] = tested on: HCT-15
[14] = tested on: SK-MEL-28
[15] = tested on: HCT-116
[16] = tested on: Hs-578T
[17] = tested on: SF-268
[18] = tested on: ACHN
[19] = tested on: OVCAR-5
[20] = tested on: HT-29
[21] = tested on: A498
[22] = tested on: SN12C
[23] = tested on: CCRF-CEM
[24] = tested on: SK-MEL-2
[25] = tested on: TK-10
[26] = tested on: HCC 2998
[27] = tested on: UO-31
[28] = tested on: MDA-MB-435
[29] = tested on: HOP-62
[30] = tested on: SNB-75
[31] = tested on: NCI-H522
[32] = tested on: DU-145
[33] = tested on: UACC-62
[34] = tested on: UACC-257
[35] = tested on: NCI-H23
[36] = tested on: SF-295
[37] = tested on: SK-MEL-5
[38] = tested on: MDA-N
[39] = tested on: NCI-H460
[40] = tested on: NCI-H226
[41] = tested on: LOX IMVI
[42] = tested on: OVCAR-4
[43] = tested on: OVCAR-8
[44] = tested on: SF-539
[45] = tested on: MOLT-4
[46] = tested on: T47D
[47] = tested on: NCI/ADR-RES
[48] = tested on: SNB-19
[49] = tested on: SK-OV-3
[50] = tested on: K562
[51] = tested on: KM12
[52] = tested on: OVCAR-3
[53] = tested on: HOP-92
[54] = tested on: SW-620
[55] = tested on: BT-549
[56] = tested on: M14
[57] = tested on: EKVX

In the case of `Cc1c(N)nc([C@H](CC(N)=O)NC[C@H](N)C(N)=O)nc1C(=O)N[C@H](C(=O)N[C@H](C)[C@@H](O)CC(=O)N[C@H](C(=O)NC(O[C@@H]1O[C@@H](C)[C@@H](N)[C@@H](O)[C@H]1O)C(O)c1nc(-c2nc(C(=O)NCCCCN)cs2)cs1)[C@@H](C)O)[C@@H](O[C@@H]1O[C@@H](CO)[C@@H](O)[C@H](O)[C@@H]1O[C@H]1O[C@H](CO)[C@@H](O)[C@H](OC(N)=O)[C@@H]1O)c1c[nH]cn1` (some centres not stated), the GI50 [1] is reported as > 50 µM (inactive), the GI50 [2] is reported as > 50 µM (inactive) and the GI50 [3] is reported as > 39.9 µM (inactive). For the same molecule, the GI50 [4] was > 50 µM (inactive), the GI50 [5] was > 50 µM (inactive) and the GI50 [6] was > 44.2 µM (inactive). The GI50 [7] was 18.7 µM (inactive), the GI50 [8] was > 50 µM (inactive) and the GI50 [9] was 5.85 µM (inactive). The GI50 [10] was 0.0316 µM (active), the GI50 [11] was 16 µM (inactive) and the GI50 [12] was 7.67 µM (inactive). The GI50 [13] was over 32.2 µM, the GI50 [14] was > 50 µM (inactive) and the GI50 [15] was 3.86 µM (inactive). For the same molecule, the GI50 [16] was 18.7 µM (inactive), the GI50 [17] was 16.1 µM (inactive) and the GI50 [18] was 0.223 µM (active). For the same molecule, the GI50 [19] was > 50 µM (inactive), the GI50 [20] was > 50 µM (inactive) and the GI50 [21] was > 50 µM (inactive). For the same molecule, the GI50 [22] was 16.5 µM (inactive), the GI50 [23] was > 50 µM (inactive) and the GI50 [24] was > 50 µM (inactive). For the same molecule, the GI50 [25] was > 50 µM (inactive), the GI50 [26] was 0.134 µM (active) and the GI50 [27] was 3.78 µM (inactive). For the same molecule, the GI50 [28] was > 50 µM (inactive), the GI50 [29] was 1.98 µM (inactive) and the GI50 [30] was 6.73 µM (inactive). For the same molecule, the GI50 [31] was 11.2 µM (inactive), the GI50 [32] was > 27.7 µM (inactive) and the GI50 [33] was 11.9 µM (inactive). For the same molecule, the GI50 [34] was > 50 µM (inactive), the GI50 [35] was 5.73 µM (inactive) and the GI50 [36] was 1.14 µM (inactive). For the same molecule, the GI50 [37] was 12.6 µM (inactive), the GI50 [38] was > 50 µM (inactive) and the GI50 [39] was 0.145 µM (active). For the same molecule, the GI50 [40] was 0.216 µM (active), the GI50 [41] was 2.89 µM (inactive) and the GI50 [42] was > 50 µM (inactive). For the same molecule, the GI50 [43] was 12.6 µM (inactive), the GI50 [44] was 0.311 µM (active) and the GI50 [45] was > 39.9 µM (inactive). The GI50 [46] was > 50 µM (inactive), the GI50 [47] was 7.89 µM (inactive) and the GI50 [48] was > 50 µM (inactive). For the same molecule, the GI50 [49] was > 50 µM (inactive), the GI50 [50] was > 50 µM (inactive) and the GI50 [51] was 49.1 µM (inactive). For the same molecule, the GI50 [52] was > 48.1 µM (inactive), the GI50 [53] was 12.9 µM (inactive) and the GI50 [54] was > 50 µM (inactive). The GI50 [55] was > 50 µM (inactive), the GI50 [56] was > 36.9 µM (inactive) and the GI50 [57] was > 50 µM (inactive).
